The nature of data set [1]: Gastric lesions and toxicity in rodents. To be noted: in vivo. The source says:
This may be related to the absence of use of toxic ingredients such as sodium azide or potassium azide.

The nature of data set [2]: CTO concentration (as CAI) in brain tissue after oral dosing. In kind it is in vivo, mice. To be noted: mouse, eight hours after treatment, read-out: CAI levels in brain tissue. Here is the method:
CTO was given orally (in PEG400) to six week old mice sorted in two Groups of 6. Two doses were administered-Group 1=513 mg/kg; Group 2=342 mg/kg. Eight hours after treatment with CTO, the mice were euthanized for measurement of CTO concentration (as CAI) in brain tissue.

A short description of data set [3]: Bioavailability of CTO given orally as solid in capsule or as liquid in PEG-400; CAI in plasma by HPLC/MS. In kind it is in vivo, dogs. To be noted: for Cmax / half-life: po; for Cmax: 685 mg/kg; for concentration at 1 h: measured as CAI, read-out: Plasma concentration after 1 hr. The method, then:
The bioavailability of CTO (base:acid, 0.7:1.3) was determined by administering a single dose 685 mg/kg by capsule (Group 1) or by oral gavage in PEG400 (Group 2). Two dogs (1F/1M) were used in each group. Blood samples were collected at 0, 1, 2, 4, 8, 12, 24, 48, 72, and 92 hours. CAI was measured by HPLC/MS.

In data set [4] the test system is HT29 human colon tumor xenografts. Description: Anticancer activity in s.c.-implanted HT29 human colon tumor xenografts. Type of data set: in vivo, mice. To be noted: CTO 343 mg/kg/day, days 13-26; measured at 41 days; control 1436 mm^3; p=0.0050 vs control. The method, then: The effect of CTO M.W. of 580.8 and CAI M.W. of 424.6+Orotic Acid M.W. of 156.1, was studied in s.c.-implanted HT29 human colon tumor xenografts in male, athymic NCr-n u/nu mice. 6 week old mice were implanted with HT29 fragments and 13 days later were sorted in […] groups of ten. For the next 14 days (13-26 days), Group 1 control (C) received the vehicle; Group 2=343 mg/kg/dose; Group 3=240 mg/kg/day CAI+103 mg/kg/day orotic acid. At 41 days, the mean tumor volume (mm^3) was measured as shown below: • Group 1 (Control)=1436 mm^3 • Group 2 (CTO343 mg/kg/day)=864 mm^3 (p=0.0050, Gr2 vs Gr 1) • Group 3 (CAI […]+Orotic Acid 103 mg/kg/day)=1268 mm^3 (p=0.2706,Gr 3 vs Gr 1). […] However, CAI+Orotic acid formulation did show some tumor inhibition.
(In general: In xenograft studies the graft and the host belong to different species.)

The format of data set [5] is in vivo. To be noted: dogs, PO, 175, 350, 1025 mg/kg/day, after 28 days.
The test system of data set [6] is Dunning R-3227-AT-1 prostate cancer model. Particulars: rats; compared with equivalent dose of L651582; U.S. Pat. No. 5,912,346; cited from earlier work.

Like-named read-outs stand apart in the source and are kept apart here.

Take `NC(=O)c1nnn(Cc2cc(Cl)c(C(=O)c3ccc(Cl)cc3)c(Cl)c2)c1N` [CAI, 5-Amino-1-(4-(4-chlorobenzoyl)-3,5-dichlorobenzyl)-1,2,3-triazole-4-carboxamide]: in data set [1], the “gastric lesions and toxicity” value was “less gastric lesions and toxicity”.

In the case of `NC(=O)c1nnn(Cc2cc(Cl)c(C(=O)c3ccc(Cl)cc3)c(Cl)c2)c1N` [CTO, 5-Amino-1-(4-(4-chlorobenzoyl)-3,5-dichlorobenzyl)-1,2,3-triazole-4-carboxamide, compound with orotic acid], the concentration at 8 h in data set [2] (CTO 342 mg/kg orally in PEG400, mice) worked out at 11000 ± 1700 ng/g; in data set [2] (CTO 513 mg/kg orally in PEG400, mice), 15200 ± 2370 ng/g. In data set [3] (both sexes, dog, plasma, oral gavage in PEG400, single dose 685 mg/kg, dogs, read-out: Bioavailability relative to Group 1 (capsule, 100%)), the bioavailability was found to be 81.8%. Besides, the AUC in data set [3] (capsule, single dose 685 mg/kg, female dog) stood at 277 µg/mL; in data set [3] (capsule, single dose 685 mg/kg, male dog), 326 µg/mL. The Cmax in data set [3] (female, dog, plasma, capsule, single dose 685 mg/kg, female dog) amounted to 7950 ng/mL; in data set [3] (female, dog, plasma, oral gavage in PEG400, single dose 685 mg/kg, female dog), 5350 ng/mL; in data set [3] (male, dog, plasma, capsule, single dose 685 mg/kg, male dog), 5800 ng/mL; in data set [3] (male, dog, plasma, oral gavage in PEG400, single dose 685 mg/kg, male dog), 6630 ng/mL. Besides, the concentration at 1 h in data set [3] (plasma, oral, capsule, single dose 685 mg/kg, female dog) came out at 174 ng/mL; in data set [3] (plasma, oral, capsule, single dose 685 mg/kg, male dog), 155 ng/mL; in data set [3] (plasma, oral gavage in PEG400, single dose 685 mg/kg, female dog), 570 ng/mL; in data set [3] (plasma, oral gavage in PEG400, single dose 685 mg/kg, male dog), 511 ng/mL. Further, the half-life in data set [3] (plasma, capsule, single dose 685 mg/kg, female dog) was 22.7 h; in data set [3] (plasma, capsule, single dose 685 mg/kg, male dog), 18 h. Also, the mean tumor volume in data set [4] was 864 mm^3. For the same compound, the deaths result in data set [5] was “no deaths occurred”.

`NC(=O)c1nnn(Cc2cc(Cl)c(C(=O)c3ccc(Cl)cc3)c(Cl)c2)c1N.O=C(O)c1cc(=O)[nH]c(=O)[nH]1` [L651582 Orotate]: the antitumor activity entry in data set [6] is “improved antitumor activity”.

The bioavailability is the share of a dose that reaches the circulation, judged against a reference dose that is usually intravenous. As usually defined, the Cmax is the peak of the concentration-time curve. What is called half-life is the time needed for the level to fall by half in the phase considered. Low values mean rapid decline, high ones slow decline.

The values above are taken from patent publication US8912223B2, “Compositions and processes for preparing 5-amino or substituted amino 1,2,3-triazoles and triazoles orotate formulations” (priority 2013, dated 2014).
